15 compounds from US20200216432A1, “SULFONAMIDE DERIVATIVES AS STAT3 INHIBITORS FOR THE TREATMENT OF PROLIFERATIVE DISEASES” (King's College London, priority 2017, published 2020) can be followed below.

Square brackets hold non-standard residues; d marks the D form. Peptide text beside a SMILES is read from it. pY = N[C@@H](Cc1ccc(OP(=O)(O)O)cc1)C(=O)O

Series [1] concerns MDA-MB-231 breast (STAT3-dependent) cancer cell line. In words: MTT cell viability assay, MDA-MB-231. It counts as cell-based, human. As to conditions: for IC50: Homo sapiens, MDA-MB-231, 48 h, MTT, 48 hours exposure (table title); for Selectivity ratio: STAT3-null A4 versus STAT3-dependent MDA-MB-231. The source says:
(§1) MTT Cell viability assay with both MDA-MB-231 breast (STAT3-dependent) and A4 (STAT3-null) cancer cell lines.
(§2) After observing significant STAT3 dimerisation inhibitory activity in the preliminary FP assay, the target ligand and related fragments were progressed to an MTT cytotoxicity assay to evaluate in a STAT3-dependent tumour cell line (MDA MB 231, breast cancer) and a STAT3 null A4 cell line. It was anticipated that the compounds would show selective toxicity towards the STAT3-dependent MDA MB 231 cell line and would have lost activity in the STAT3 null A4 cell line if the mechanism of action was STAT3-mediated.
(§3) For each cell line, a total of 10,000 cells were seeded for 24 hours before addition of the inhibitors. The cells were grown in normal cell culture conditions at 37° C. under a 5% CO2 humidified atmosphere using an appropriate medium. The cell count was adjusted to 10^5 cells/ml, and 5,000-20,000 cells were added per well depending on the cell line. The cells were then incubated for 24 hours, and 1 μl aliquots of the inhibitors were added to the wells in triplicate. […] Absorbance was quantified by spectrophotometry at A=570 nm (Envision™ Plate Reader, PerkinElmer™, USA). IC50 values were calculated by a dose-response analysis using the Prism GraphPad Prism® software package.
(Tetrazolium assays rely on reduction of a dye to a coloured formazan, in cell work by metabolically active cells.)

Series [2] concerns the target unphosphorylated STAT3 monomer (uSTAT3) SH2 domain (Homo sapiens, UniProt P40763). In words: Fluorescence polarisation assay for the inhibition of STAT3 dimerisation. It counts as binding. To be noted: 350 nM uSTAT3, 10 nM FAM-pYLPQTV, 100 μM ligand; average of triplicate. An excerpt:
Fluorescence Polarisation Assay for the Inhibition of STAT3 Dimerisation
The compounds were subjected to an in vitro fluorescent polarisation (FP)-based primary PPI binding screen to assess their ability to inhibit STAT3 dimerisation by interacting with the SH2 domain. In this FP assay, the unphosphorylated STAT3 monomer (uSTAT3) and a surrogate peptide FAM-pYLPQTV were used to form a ‘pseudo-dimer’. The assay is based on the concept that the compounds were expected to displace the surrogate peptide from the uSTAT3 resulting in a fluorescent read out.
Specifically, for the FP assay, a black (CORNING™) 96 well plate was thoroughly washed with distilled water and allowed to dry. A 100 nM FAM-pYLPQTV working solution was prepared from 10 μM FAM-pYLPQTV stock solution (in DMSO) using PBS pH 7.4 Buffer. 10 μl FAM-pYLPQTV was added to 350 nM uSTAT3 protein, the final concentration of protein in each well, in 90 μl PBS buffer pH 7.4. The MP value of the surrogate dimer complex was measured using a fluorescent plate reader (Envision™, Perkin Elmer™, USA), which provided the base MP value. The inhibitor solution was then added to the well and the assay plate was placed on a shaker for 5 minutes. The MP value for each well was then measured again. A shift in fluorescent values was observed due to displacement of the fluorescently-labelled surrogate peptide by the inhibitors, and the average inhibition for each inhibitor could be calculated as described below:
Base MP value (X) for each well=MP value of Protein and Probe (350 nm STAT3+10 nM FAM-pYLPQTV)−MP value of free FAM-pYLPQTV
Inhibitor MP value (Y) for each well=MP value of Protein+Probe+Inhibitor (350 nm uSTAT3+10 nM FAM-pYLPQTV+2 μL Inhibitor)−MP value of free FAM-pYLPQTV with 2 μL DMSO
% inhibition by any ligand/peptide=(X−Y)/X*100
For comparison purpose, the % inhibition produced by 100 μM pYLKTKF was considered to be 100%, and the inhibition produced by different ligands was reported as relative to 100 μM pYLKTKF.
% Inhibition produced by 100 μM pYLKTKF=A
% Inhibition produced by 100 μM Ligand=B
Relative inhibition (%)=B/A*100
The experiment was carried out in triplicate, and average values were taken as the measure of PPI inhibition.
A general note: Fluorescence polarisation rises when a labelled molecule tumbles more slowly, as on binding a larger partner.

For series [3], the system named is A4 (STAT3-null) cancer cell line. The experiment in a line: MTT cell viability assay, A4. It counts as cell-based. To be noted: exposure (table title).
Excerpt: as §1, §2, §3

Sequence of unphosphorylated STAT3 monomer (uSTAT3) SH2 domain (P40763 whole entry, the tested form may be a part): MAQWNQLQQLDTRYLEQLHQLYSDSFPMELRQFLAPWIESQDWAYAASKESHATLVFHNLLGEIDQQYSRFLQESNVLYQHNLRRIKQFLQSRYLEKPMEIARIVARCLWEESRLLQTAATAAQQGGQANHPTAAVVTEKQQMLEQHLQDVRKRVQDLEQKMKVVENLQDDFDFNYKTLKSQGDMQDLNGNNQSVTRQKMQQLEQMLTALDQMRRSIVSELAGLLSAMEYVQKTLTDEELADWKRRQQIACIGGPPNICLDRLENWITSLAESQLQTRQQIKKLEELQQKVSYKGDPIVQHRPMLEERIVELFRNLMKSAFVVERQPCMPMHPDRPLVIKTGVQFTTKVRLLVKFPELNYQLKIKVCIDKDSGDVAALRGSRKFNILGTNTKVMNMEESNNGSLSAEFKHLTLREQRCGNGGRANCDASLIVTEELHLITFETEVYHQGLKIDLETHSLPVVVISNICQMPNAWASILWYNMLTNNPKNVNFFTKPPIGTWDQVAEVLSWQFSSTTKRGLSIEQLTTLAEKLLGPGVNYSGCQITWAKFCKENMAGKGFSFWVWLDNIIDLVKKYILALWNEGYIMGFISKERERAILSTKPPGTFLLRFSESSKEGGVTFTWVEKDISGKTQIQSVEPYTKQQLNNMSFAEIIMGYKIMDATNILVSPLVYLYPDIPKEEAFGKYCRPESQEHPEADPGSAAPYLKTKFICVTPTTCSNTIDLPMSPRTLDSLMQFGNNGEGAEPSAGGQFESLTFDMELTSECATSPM

For the compound `COC(=O)c1ccc(N(C)S(=O)(=O)c2cc(C(=O)NCc3ccc(CN4CCCCC4)cc3)sc2-c2ccc(N3CCOCC3)cc2)cc1` [Compound 1, methyl 4-((N-methyl-2-(4-morpholinophenyl)-5-((4-(piperidin-1-ylmethyl)benzyl)carbamoyl)thiophene)-3-sulfonamido)benzoate], the IC50 was determined as 2.68 µM in series [1] and 75.4 µM in series [3]. In addition, the Selectivity ratio in series [1] is 28.13. Moreover, the inhibition at 100 µM in series [2] amounted to 59.4%.

`COC(=O)c1ccc(N(C)S(=O)(=O)c2cc(C(=O)NCc3ccc(CN4CCCCC4)cc3)sc2-c2ccc(N3CCCCC3)cc2)cc1` [Compound 2, methyl 4-((N-methyl-2-(4-(piperidin-1-yl)phenyl)-5-((4-(piperidin-1-ylmethyl)benzyl)carbamoyl)thiophene)-3-sulfonamido)benzoate]: in series [1], half-maximal inhibition (IC50) required 2.12 µM and the Selectivity ratio amounted to 39.76. In series [2], this compound returned an inhibition at 100 µM of 51.2%. Further, half-maximal inhibition in series [3] (IC50) was put at 84.3 µM.

Take `COC(=O)c1ccc(N(C)S(=O)(=O)c2cc(C(=O)NCc3ccc(CN4CCCCC4)cc3)sc2-c2ccnc(N3CCN(C)CC3)c2)cc1` [Compound 5, methyl 4-((N-methyl-2-(2-(4-methylpiperazin-1-yl)pyridin-4-yl)-5-((4-(piperidin-1-ylmethyl)benzyl)carbamoyl)thiophene)-3-sulfonamido)benzoate]: in series [1], the IC50 came out at 2.43 µM and the Selectivity ratio is on record as 23.62. Besides, the inhibition at 100 µM in series [2] was determined as 46.9%. In series [3], this compound returned an IC50 of 57.4 µM.

Turning to `COC(=O)c1ccc(N(C)S(=O)(=O)c2cc(C(=O)NCc3ccc(CN4CCCCC4)cc3)sc2-c2ccc(C(=O)N3CCN(C)CC3)cc2)cc1` [Compound 7, methyl 4-((N-methyl-2-(4-(4-methylpiperazine-1-carbonyl)phenyl)-5-((4-(piperidin-1-ylmethyl)benzyl)carbamoyl)thiophene)-3-sulfonamido)benzoate], in series [1], the IC50 came out at 6.5 µM and the Selectivity ratio worked out at 10.01. For the same compound, the inhibition at 100 µM in series [2] was 40.6%. This compound also registered an IC50 in series [3] of 65.1 µM.

Turning to `COC(=O)c1ccc(N(C)S(=O)(=O)c2cc(C(=O)NCc3ccc(CN4CCCCC4)cc3)sc2-c2ccc(C#N)cc2)cc1` [Compound 8, methyl 4-((2-(4-cyanophenyl)-N-methyl-5-((4-(piperidin-1-ylmethyl)benzyl)carbamoyl)thiophene)-3-sulfonamido)benzoate], in series [1], the IC50 was 12.4 µM and the Selectivity ratio came out at 2.76. Moreover, in series [2], testing at 100 µM gave an inhibition of 36.4%. The IC50 in series [3] amounted to 34.3 µM.

Regarding `COC(=O)c1ccc(N(C)S(=O)(=O)c2cc(C(=O)Nc3ccc(OCCN4CCOCC4)cc3)sc2-c2ccc(N3CCOCC3)cc2)cc1` [Compound 9, methyl 4-((N-methyl-5-((4-(2-morpholinoethoxy)phenyl)carbamoyl)-2-(4-morpholinophenyl)thiophene)-3-sulfonamido)benzoate], in series [1], the IC50 stood at 2.88 µM and the Selectivity ratio was determined as 31.21. Also, the inhibition at 100 µM in series [2] amounted to 54.1%. For the same compound, it took 89.9 µM to reach half-maximal inhibition in series [3] (IC50).

Consider `COC(=O)c1ccc(N(C)S(=O)(=O)c2cc(C(=O)Nc3ccc(OCCN4CCOCC4)cc3)sc2-c2ccc(N3CCN(C)CC3)nc2)cc1` [Compound 11, methyl 4-((N-methyl-2-(6-(4-methylpiperazin-1-yl)pyridin-3-yl)-5-((4-(2-morpholinoethoxy)phenyl)carbamoyl)thiophene)-3-sulfonamido)benzoate], for which the IC50 in series [1] was found to be 7.51 µM; in series [3], 66.4 µM. Further, in series [1], the Selectivity ratio is reported as 8.84. Besides, in series [2], the inhibition at 100 µM was determined as 58.3%.

Turning to `COC(=O)c1ccc(N(C)S(=O)(=O)c2cc(C(=O)Nc3ccc(OCCN4CCOCC4)cc3)sc2-c2ccc(C(=O)N3CCOCC3)cc2)cc1` [Compound 12, methyl 4-((N-methyl-2-(4-(morpholine-4-carbonyl)phenyl)-5-((4-(2-morpholinoethoxy)phenyl)carbamoyl)thiophene)-3-sulfonamido)benzoate], in series [1], the midpoint of inhibition, the IC50, lay at 3.91 µM and the Selectivity ratio came to 19.28. This compound had an inhibition at 100 µM in series [2] of 59.4%. Also, in series [3], the IC50 turned out to be 75.4 µM.

Take `COC(=O)c1ccc(N(C)S(=O)(=O)c2cc(C(=O)Nc3ccc(OCCN4CCOCC4)cc3)sc2-c2ccnc(N3CCN(C)CC3)c2)cc1` [Compound 13, methyl 4-((N-methyl-2-(2-(4-methylpiperazin-1-yl)pyridin-4-yl)-5-((4-(2-morpholinoethoxy)phenyl)carbamoyl)thiophene)-3-sulfonamido)benzoate]: in series [1], the IC50 came to 1.86 µM and the Selectivity ratio is listed as 40.01. For the same compound, in series [2], the inhibition at 100 µM came to 56.2%. In series [3], inhibition was half-maximal at 74.7 µM (IC50).

On to `COC(=O)c1ccc(N(C)S(=O)(=O)c2cc(C(=O)Nc3ccc(OCCN4CCOCC4)cc3)sc2-c2ccnc(N3CCNCC3)c2)cc1` [Compound 14, methyl 4-((N-methyl-5-((4-(2-morpholinoethoxy)phenyl)carbamoyl)-2-(2-(piperazin-1-yl)pyridin-4-yl)thiophene)-3-sulfonamido)benzoate], for which, in series [1], the IC50 stood at 14.5 µM and the Selectivity ratio is recorded as 5.40. The compound further showed an inhibition at 100 µM in series [2] of 33.3%. Moreover, the IC50 in series [3] stood at 78.4 µM.

On to `COC(=O)c1ccc(N(C)S(=O)(=O)c2cc(C(=O)Nc3ccc(OCCN4CCOCC4)cc3)sc2-c2ccc(C(=O)N3CCN(C)CC3)cc2)cc1` [Compound 15, methyl 4-((N-methyl-2-(4-(4-methylpiperazine-1-carbonyl)phenyl)-5-((4-(2-morpholinoethoxy)phenyl)carbamoyl)thiophene)-3-sulfonamido)benzoate], for which the IC50 was found to be 10.1 µM in series [1] and 84.5 µM in series [3]. Also, the Selectivity ratio in series [1] was 8.45. Also, in series [2], at 100 µM the inhibition was 40.6%.

As to `COC(=O)c1ccc(N(C)S(=O)(=O)c2cc(C(=O)Nc3ccc(OCCN4CCOCC4)cc3)sc2-c2ccc(C#N)cc2)cc1` [Compound 16, methyl 4-((2-(4-cyanophenyl)-N-methyl-5-((4-(2-morpholinoethoxy)phenyl)carbamoyl)thiophene)-3-sulfonamido)benzoate], in series [1], half-maximal inhibition (IC50) required 1.1 µM and the Selectivity ratio was found to be 32.36. Besides, the inhibition at 100 µM in series [2] worked out at 47.9%. In addition, in series [3], the IC50 was found to be 35.6 µM.

Consider `COC(=O)c1ccc(N(C)S(=O)(=O)c2cc(C(=O)NCc3ccc(N4CCN(C)CC4)cc3)sc2-c2ccc(N3CCCCC3)cc2)cc1` [Compound 17, methyl 4-((N-methyl-5-((4-(4-methylpiperazin-1-yl)benzyl)carbamoyl)-2-(4-(piperidin-1-yl)phenyl)thiophene)-3-sulfonamido)benzoate], for which the IC50 in series [1] amounted to 4.7 µM; in series [3], 64.3 µM. The Selectivity ratio in series [1] turned out to be 13.68. The same compound registered an inhibition at 100 µM in series [2] of 43.7%.

In turn, `COC(=O)c1ccc(N(C)S(=O)(=O)c2cc(C(=O)Nc3ccc4c(ccn4Cc4ccccc4)c3)sc2Br)cc1` [Compound 40, methyl 4-((5-((1-benzyl-1H-indo1-5-yl)carbamoyl)-2-bromo-N-methylthiophene)-3-sulfonamido)benzoate] gave an inhibition at 100 µM in series [2] of 47.1%.

On to `CC(C)C[C@H](NC(=O)[C@@H](N)Cc1ccc(OP(=O)(O)O)cc1)C(=O)N[C@@H](CCCCN)C(=O)N[C@H](C(=O)N[C@@H](CCCCN)C(=O)N[C@@H](Cc1ccccc1)C(=O)O)[C@@H](C)O` [pYLKTKF, reference compound] (H-[pY]LKTKF-OH), for which, in series [1] (highest concentration (100 μM) evaluated), the “cytotoxicity in the MTT assay” value is “did not show any cytotoxicity”. Besides, the inhibition at 100 µM in series [2] worked out at 41.6%.

Broadly, the IC50 is the concentration at which inhibition is half-maximal. A high value points to weaker potency. The term inhibition denotes the share of the control response that was lost under treatment. A low value points to a weak effect.
